From patent publication US20070197559A1, “Aryl substituted purine analogues” (priority 2004, published 2007)

Molecular target: T1, human capsaicin receptor (Homo sapiens, UniProt Q8NER1)
T1 construct: transfected with the pBK-CMV expression construct encoding the full length human capsaicin receptor; expressed in transfected cells
T1 sequence (Q8NER1 whole entry): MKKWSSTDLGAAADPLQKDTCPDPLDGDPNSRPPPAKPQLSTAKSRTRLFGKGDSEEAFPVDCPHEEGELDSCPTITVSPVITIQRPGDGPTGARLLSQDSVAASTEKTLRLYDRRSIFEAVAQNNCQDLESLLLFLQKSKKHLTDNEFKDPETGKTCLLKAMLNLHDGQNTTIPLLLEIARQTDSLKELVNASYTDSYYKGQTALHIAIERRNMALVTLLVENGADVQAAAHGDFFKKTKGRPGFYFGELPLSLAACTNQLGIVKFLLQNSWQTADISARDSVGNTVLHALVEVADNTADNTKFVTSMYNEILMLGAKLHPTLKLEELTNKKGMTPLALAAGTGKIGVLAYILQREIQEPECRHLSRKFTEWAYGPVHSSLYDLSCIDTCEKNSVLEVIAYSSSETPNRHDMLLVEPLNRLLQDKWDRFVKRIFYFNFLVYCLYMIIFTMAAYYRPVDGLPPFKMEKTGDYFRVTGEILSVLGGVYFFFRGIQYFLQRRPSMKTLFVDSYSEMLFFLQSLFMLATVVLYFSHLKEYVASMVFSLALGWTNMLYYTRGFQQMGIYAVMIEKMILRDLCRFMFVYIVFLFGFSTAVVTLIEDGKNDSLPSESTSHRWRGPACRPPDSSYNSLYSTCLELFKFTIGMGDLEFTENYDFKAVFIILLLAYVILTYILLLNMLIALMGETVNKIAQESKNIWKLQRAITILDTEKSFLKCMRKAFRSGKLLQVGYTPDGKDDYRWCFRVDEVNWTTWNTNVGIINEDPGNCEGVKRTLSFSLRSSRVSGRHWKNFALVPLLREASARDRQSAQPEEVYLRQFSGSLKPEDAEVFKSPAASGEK
Assay: Calcium mobilization assay, determination of antagonist activity
Type: cell-based
Settings: cells expressing human capsaicin receptor, capsaicin-induced fluorescence response, Example 6
Method: A cDNA encoding full length human capsaicin receptor (SEQ ID NO:1, 2 or 3 of U.S. Pat. No. 6,482,611) is subcloned in the plasmid pBK-CMV (Stratagene, La Jolla, Calif.) for recombinant expression in mammalian cells.
Human embryonic kidney (HEK293) cells are transfected with the pBK-CMV expression construct encoding the full length human capsaicin receptor using standard methods. The transfected cells are selected for two weeks in media containing G418 (400 μg/ml) to obtain a pool of stably transfected cells. Independent clones are isolated from this pool by limiting dilution to obtain clonal stable cell lines for use in subsequent experiments.
Cells transfected with expression plasmids (as described in Example 4) and thereby expressing human capsaicin receptor are seeded and grown to 70-90% confluency in FALCON black-walled, clear-bottomed 96-well plates (#3904, BECTON-DICKINSON, Franklin Lakes, N.J.). The culture medium is emptied from the 96 well plates and FLUO-3 AM calcium sensitive dye (Molecular Probes, Eugene, Oreg.) is added to each well (dye solution: 1 mg FLUO-3 AM, 440 μL DMSO and […] pluronic acid in DMSO, diluted 1:250 in Krebs-Ringer HEPES (KRH) buffer (25 mM HEPES, 5 mM KCl, 0.96 mM NaH2PO4, 1 mM MgSO4, 2 mM CaCl2, 5 mM glucose, 1 mM probenecid, pH 7.4), 50 μl diluted solution per well). Plates are covered with aluminum foil and incubated at 37° C. for 1-2 hours in an environment containing 5% CO2. After the incubation, the dye is emptied from the plates, and the cells are washed once with KRH buffer, and resuspended in KRH buffer.
To measure the ability of a test compound to agonize or antagonize a calcium mobilization response in cells expressing capsaicin receptors to capsaicin or other vanilloid agonist, the EC50 of the agonist capsaicin is first determined. An additional 20 μl of KRH buffer and 1 μl DMSO is added to each well of cells, prepared as described above. 100 μl capsaicin in KRH buffer is automatically transferred by the FLIPR instrument to each well. Capsaicin-induced calcium mobilization is monitored using either FLUOROSKAN ASCENT (Labsystems; Franklin, Mass.) or FLIPR (fluorometric imaging plate reader system; Molecular Devices, Sunnyvale, Calif.) instruments. Data obtained between 30 and 60 seconds after agonist application are used to generate an 8-point concentration response curve, with final capsaicin concentrations of 1 nM to 3 μM. KALEIDAGRAPH software (Synergy Software, Reading, Pa.) is used to fit the data to the equation: y=a*(1/(1+(b/x)^c)) to determine the 50% excitatory concentration (EC50) for the response. In this equation, y is the maximum fluorescence signal, x is the concentration of the agonist or antagonist (in this case, capsaicin), a is the Emax, b corresponds to the EC50 value and c is the Hill coefficient. Determination of Agonist Activity
Test compounds are dissolved in DMSO, diluted in 20 μl KRH buffer so that the final concentration of test compounds in the assay well is between 1 μM and 5 μM, and added to cells prepared as described above. The 96 well plates containing prepared cells and test compounds are incubated in the dark, at room temperature for 0.5 to 6 hours. It is important that the incubation not continue beyond 6 hours. Just prior to determining the fluorescence response, 100 μl capsaicin in KRH buffer at twice the EC50 concentration determined as described above is automatically added by the FLIPR instrument to each well of the 96 well plate for a final sample volume of 200 μl and a final capsaicin concentration equal to the EC50. The final concentration of test compounds in the assay wells is between 1 μM and 5 μM. […] The concentration of antagonist required to provide a 50% decrease, relative to the response observed in the presence of capsaicin and without antagonist, is the IC50 for the antagonist, and is preferably below 1 micromolar, 100 nanomolar, 10 nanomolar or 1 nanomolar.
With `CC(C)COCc1nc(Nc2ccc(C(C)(C)C#N)cc2)c2cnn(-c3ccccc3Cl)c2n1` [2-{4-[1-(2-Chloro-phenyl)-6-isobutoxymethyl-1H-pyrazolo[3,4-d]pyrimidin-4-ylamino]-phenyl}-2-methyl-propionitrile] the IC50 was no more than 1000 nM. For `CC(C)(C#N)c1ccc(Nc2ncnc3c2ncn3-c2cccc(Cl)c2)cc1` [2-{4-[9-(3-Chloro-phenyl)-9H-purin-6-ylamino]-phenyl}-2-methyl-propionitrile], the IC50 was no more than 1000 nM. Molecule `N#Cc1ccc(Nc2ncnc3c2ncn3-c2cccc(Cl)c2)cc1` [4-[9-(3-Chloro-phenyl)-9H-purin-6-ylamino]-benzonitrile] has an IC50 of no more than 1000 nM. In the case of `Clc1ccc(Nc2ncnc3c2ncn3-c2cccc(Cl)c2)cc1` [(4-Chloro-phenyl)-[9-(3-chloro-phenyl)-9H-purin-6-yl]-amine], the IC50 is reported as no more than 1000 nM. `C[C@@H]1CN(Cc2nc(Nc3ccc(C(C)(C)C)cc3)c3cnn(-c4ccccc4Cl)c3n2)C[C@H](C)O1` [(4-tert-Butyl-phenyl)-[1-(2-chloro-phenyl)-6-(2,6-dimethyl-morpholin-4-ylmethyl)-1H-pyrazolo[3,4-d]pyrimidin-4-yl]-amine] gave an IC50 of no more than 1000 nM. Work on `CC(C)COCc1nc(Nc2ccc(C(C)(C)C)cc2)c2cnn(-c3ccccc3Cl)c2n1` [(4-tert-Butyl-phenyl)-[1-(2-chloro-phenyl)-6-isobutoxymethyl-1H-pyrazolo[3,4-d]pyrimidin-4-yl]-amine] yielded an IC50 of no more than 1000 nM. In the case of `CC(C)(C)c1ccc(Nc2ncnc3c2cnn3-c2ncccc2Cl)cc1` [(4-tert-Butyl-phenyl)-[1-(3-chloro-pyridin-2-yl)-1H-pyrazolo[3,4-d]pyrimidin-4-yl]-amine], the IC50 is reported as no more than 1000 nM. In the case of `CC(C)(C)c1ccc(Nc2ncnc3c2ncn3Cc2ccccc2Cl)cc1` [(4-tert-Butyl-phenyl)-[9-(2-chloro-benzyl)-9H-purin-6-yl]-amine], the IC50 is reported as no more than 1000 nM. Molecule `Cc1nc2c(Nc3ccc(C(C)(C)C)cc3)ncnc2n1-c1ccccc1Cl` [(4-tert-Butyl-phenyl)-[9-(2-chloro-phenyl)-8-methyl-9H-purin-6-yl]amine] has an IC50 of no more than 1000 nM. Work on `CC(C)(C)c1ccc(Nc2ncnc3c2ncn3-c2ccccc2Cl)cc1` [(4-tert-Butyl-phenyl)-[9-(2-chloro-phenyl)-9H-purin-6-yl]-amine] yielded an IC50 of no more than 1000 nM. Work on `CC(C)(C)c1ccc(Nc2ncnc3c2ncn3-c2cccc(Cl)c2)cc1` [(4-tert-Butyl-phenyl)-[9-(3-chloro-phenyl)-9H-purin-6-yl]-amine] yielded an IC50 of no more than 1000 nM. Work on `O=S(=O)(c1ccc(Nc2ncnc3c2cnn3-c2ccccc2Cl)cc1)C(F)(F)F` [[1-(2-Chloro-phenyl)-1H-pyrazolo[3,4-d]pyrimidin-4-yl]-(4-trifluoromethanesulfonyl-phenyl)-amine] yielded an IC50 of no more than 1000 nM. For `C[C@@H]1CN(Cc2nc(Nc3ccc(C(F)(F)F)cc3)c3cnn(-c4ccccc4Cl)c3n2)C[C@H](C)O1` [[1-(2-Chloro-phenyl)-6-(2,6-dimethyl-morpholin-4-ylmethyl)-1H-pyrazolo[3,4-d]pyrimidin-4-yl]-(4-trifluoromethyl-phenyl)-amine], the IC50 was no more than 1000 nM. Molecule `CC(C)COCc1nc(Nc2ccc(C(C)C)cc2)c2cnn(-c3ccccc3Cl)c2n1` [[1-(2-Chloro-phenyl)-6-isobutoxymethyl-1H-pyrazolo[3,4-d]pyrimidin-4-yl]-(4-isopropyl-phenyl)-amine] has an IC50 of no more than 1000 nM. `CC(C)COCc1nc(Nc2ccc(C(F)(F)F)cc2)c2cnn(-c3ccccc3Cl)c2n1` [[1-(2-Chloro-phenyl)-6-isobutoxymethyl-1H-pyrazolo[3,4-d]pyrimidin-4-yl]-(4-trifluoromethyl-phenyl)-amine] showed an IC50 of no more than 1000 nM. In the case of `FC(F)(F)c1ccc(Nc2ncnc3c2cnn3-c2ncccc2Cl)cc1` [[1-(3-Chloro-pyridin-2-yl)-1H-pyrazolo[3,4-d]pyrimidin-4-yl]-(4-trifluoromethyl-phenyl)-amine], the IC50 is reported as no more than 1000 nM. `FC(F)(F)c1ccc(Nc2ncnc3c2ncn3Cc2ccccc2Cl)cc1` [[9-(2-Chloro-benzyl)-9H-purin-6-yl]-(4-trifluoromethyl-phenyl)-amine] showed an IC50 of no more than 1000 nM. `FC(F)(F)c1ccc(Nc2ncnc3c2ncn3-c2cccc(Cl)c2)cc1` [[9-(3-Chloro-phenyl)-9H-purin-6-yl]-(4-trifluoromethyl-phenyl)-amine] gave an IC50 of no more than 1000 nM.

Molecular target: vanilloid receptor (VR) (Homo sapiens, UniProt Q8NER1)
Sequence (Q8NER1 whole entry): as above
Assay: not given
Settings: typical value, background; read-out: Ki value (binding to VR); cited from earlier work
For `Cl.Cl.Cl.Cl.Cl.Cl.N.N.N.N.N.N.N.N.N.N.N.N.N.N.[O-2].[O-2].[Ru+3].[Ru+3].[Ru+4]` [ruthenium red], the Ki is given as no less than 140000 nM.
